Consider five compounds from ChEMBL document CHEMBL5465560, “Selectivity Literature for EUbOPEN Chemogenomic Library” (2024).

Molecules are shown by their SMILES.

In assay [1] the target is T1, Phosphatidylinositol 5-phosphate 4-kinase type-2 gamma (Homo sapiens) (UniProt Q8TBX8).
T1 sequence (whole entry): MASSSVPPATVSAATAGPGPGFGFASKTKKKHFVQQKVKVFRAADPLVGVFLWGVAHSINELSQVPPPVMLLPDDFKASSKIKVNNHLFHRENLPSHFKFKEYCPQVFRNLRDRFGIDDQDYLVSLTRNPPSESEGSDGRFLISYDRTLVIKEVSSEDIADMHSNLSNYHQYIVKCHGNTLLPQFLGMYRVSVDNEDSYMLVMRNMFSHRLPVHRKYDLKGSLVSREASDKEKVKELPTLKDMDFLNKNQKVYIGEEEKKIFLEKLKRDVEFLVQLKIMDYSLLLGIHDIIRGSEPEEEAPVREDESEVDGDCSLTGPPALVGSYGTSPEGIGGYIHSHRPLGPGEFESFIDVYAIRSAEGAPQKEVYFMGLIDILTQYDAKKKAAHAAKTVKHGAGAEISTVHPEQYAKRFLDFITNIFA
Kind of assay: Selectivity interaction (Kinase panel (KiNativ target engagement assay in Jurkat cells)) EUB0001635a PIP4K2C. To be noted: Selectivity number of off-targets 0.0, Selectivity number of targets 233.0, Source Knowledge https://www.sciencedirect.com/science/article/pii/S2451945619300674?via%3Dihub, at 1 µM. Format: cell-based.

In assay [2] the target is T2, Serine/threonine-protein kinase ULK1 (Homo sapiens) (UniProt O75385).
T2 sequence (whole entry): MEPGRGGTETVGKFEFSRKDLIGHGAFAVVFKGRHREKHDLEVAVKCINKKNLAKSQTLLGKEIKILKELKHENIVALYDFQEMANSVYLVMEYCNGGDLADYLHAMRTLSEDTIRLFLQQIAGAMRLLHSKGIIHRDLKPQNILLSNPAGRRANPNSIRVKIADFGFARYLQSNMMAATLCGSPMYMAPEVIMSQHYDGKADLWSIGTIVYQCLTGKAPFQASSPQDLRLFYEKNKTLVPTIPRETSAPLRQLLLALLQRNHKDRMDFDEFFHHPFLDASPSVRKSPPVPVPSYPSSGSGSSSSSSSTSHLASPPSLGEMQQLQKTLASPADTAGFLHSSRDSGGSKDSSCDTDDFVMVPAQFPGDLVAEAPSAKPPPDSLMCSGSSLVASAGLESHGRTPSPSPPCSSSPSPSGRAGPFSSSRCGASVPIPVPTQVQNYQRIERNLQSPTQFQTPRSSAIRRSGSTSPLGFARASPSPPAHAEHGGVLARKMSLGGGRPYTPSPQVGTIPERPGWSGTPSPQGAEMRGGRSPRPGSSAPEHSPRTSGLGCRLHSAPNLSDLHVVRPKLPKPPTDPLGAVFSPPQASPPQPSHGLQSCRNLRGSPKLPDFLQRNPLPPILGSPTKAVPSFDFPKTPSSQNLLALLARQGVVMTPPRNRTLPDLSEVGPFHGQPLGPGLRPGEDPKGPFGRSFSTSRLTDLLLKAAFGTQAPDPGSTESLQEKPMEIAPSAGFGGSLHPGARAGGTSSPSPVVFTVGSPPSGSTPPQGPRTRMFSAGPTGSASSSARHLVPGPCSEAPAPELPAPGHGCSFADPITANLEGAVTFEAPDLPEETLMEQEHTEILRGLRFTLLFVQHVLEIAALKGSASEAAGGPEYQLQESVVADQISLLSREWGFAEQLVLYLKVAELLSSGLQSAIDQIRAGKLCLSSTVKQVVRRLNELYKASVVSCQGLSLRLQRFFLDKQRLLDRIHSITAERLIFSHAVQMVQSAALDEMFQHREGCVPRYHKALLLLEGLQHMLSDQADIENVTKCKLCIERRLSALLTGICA
Put plainly: Selectivity interaction (Ambit KINOMEscan and KiNATiv profiling in Jurkat cells) EUB0000090b ULK1. In kind it is cell-based. To be noted: at 1 µM.

In assay [3] the target is Calcium/calmodulin-dependent protein kinase type 1 (Homo sapiens) (UniProt Q14012). Put plainly: Selectivity interaction (ActivX KiNativ screen (kinase selectivity in THP-1 cell lysates)) EUB0000639a CAMK1. Format: subcellular. The settings on record: lysate, at 0.01 µM.
Calcium/calmodulin-dependent protein kinase type 1 (Homo sapiens), sequence (Q14012 whole entry, looked up): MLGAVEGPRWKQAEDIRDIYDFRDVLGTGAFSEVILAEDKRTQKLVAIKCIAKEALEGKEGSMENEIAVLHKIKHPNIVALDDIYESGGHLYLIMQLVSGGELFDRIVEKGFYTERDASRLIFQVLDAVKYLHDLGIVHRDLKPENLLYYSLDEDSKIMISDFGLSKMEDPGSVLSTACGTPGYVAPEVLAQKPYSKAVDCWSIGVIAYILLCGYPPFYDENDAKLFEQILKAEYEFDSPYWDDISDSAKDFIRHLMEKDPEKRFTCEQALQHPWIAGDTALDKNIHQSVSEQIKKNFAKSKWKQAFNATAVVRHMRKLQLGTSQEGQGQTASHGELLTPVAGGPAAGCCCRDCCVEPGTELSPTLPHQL
Assay [4] has as its target T3, Serine/threonine-protein kinase Nek11 (Homo sapiens) (UniProt Q8NG66).
T3 sequence (whole entry): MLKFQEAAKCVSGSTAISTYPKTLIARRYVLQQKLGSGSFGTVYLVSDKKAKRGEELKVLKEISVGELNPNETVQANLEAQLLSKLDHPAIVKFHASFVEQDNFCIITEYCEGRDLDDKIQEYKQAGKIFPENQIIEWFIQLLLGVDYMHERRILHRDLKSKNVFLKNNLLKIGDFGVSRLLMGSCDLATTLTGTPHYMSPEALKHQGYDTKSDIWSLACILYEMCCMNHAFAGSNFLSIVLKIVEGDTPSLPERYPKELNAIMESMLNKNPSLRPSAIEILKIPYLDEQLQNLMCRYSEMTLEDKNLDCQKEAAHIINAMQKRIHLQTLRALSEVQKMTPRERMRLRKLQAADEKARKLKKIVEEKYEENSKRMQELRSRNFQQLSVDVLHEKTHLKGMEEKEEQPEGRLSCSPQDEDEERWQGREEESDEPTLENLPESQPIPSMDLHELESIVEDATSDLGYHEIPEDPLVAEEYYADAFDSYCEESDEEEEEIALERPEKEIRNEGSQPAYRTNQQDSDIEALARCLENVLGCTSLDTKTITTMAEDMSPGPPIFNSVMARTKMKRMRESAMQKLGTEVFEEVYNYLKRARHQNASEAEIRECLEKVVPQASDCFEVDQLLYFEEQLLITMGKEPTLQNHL
Put plainly: Selectivity interaction (KinomeScan (DiscoverX)) EUB0000695a NEK11. The settings on record: at 100 nM.

Assay [5] has as its target MAP kinase-interacting serine/threonine-protein kinase 1 (Homo sapiens) (UniProt Q9BUB5). Kind of assay: Selectivity interaction (KinomeScan (DiscoverX)) EUB0000695a MKNK1. To be noted: at 100 nM.
Assay [6] addresses Proto-oncogene tyrosine-protein kinase Src (Homo sapiens, UniProt P12931). Kind of assay: Selectivity interaction (ProQinase) EUB0000171b SRC.

Proto-oncogene tyrosine-protein kinase Src, sequence (P12931 2-536 limits assumed): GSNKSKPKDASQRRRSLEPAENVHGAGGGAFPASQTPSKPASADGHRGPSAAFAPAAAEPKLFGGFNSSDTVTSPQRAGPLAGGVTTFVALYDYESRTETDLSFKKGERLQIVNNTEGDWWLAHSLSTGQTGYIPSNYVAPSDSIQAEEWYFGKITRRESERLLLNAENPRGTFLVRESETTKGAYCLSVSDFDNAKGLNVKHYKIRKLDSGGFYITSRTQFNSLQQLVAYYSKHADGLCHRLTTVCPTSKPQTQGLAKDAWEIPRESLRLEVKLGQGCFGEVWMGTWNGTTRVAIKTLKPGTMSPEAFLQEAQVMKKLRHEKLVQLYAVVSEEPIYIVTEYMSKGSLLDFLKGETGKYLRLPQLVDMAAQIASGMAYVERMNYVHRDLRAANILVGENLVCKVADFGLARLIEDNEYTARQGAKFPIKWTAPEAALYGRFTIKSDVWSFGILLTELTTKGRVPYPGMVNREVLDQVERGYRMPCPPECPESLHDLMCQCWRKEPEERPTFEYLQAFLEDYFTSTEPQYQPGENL
MAP kinase-interacting serine/threonine-protein kinase 1 (Homo sapiens), sequence (Q9BUB5 whole entry, looked up): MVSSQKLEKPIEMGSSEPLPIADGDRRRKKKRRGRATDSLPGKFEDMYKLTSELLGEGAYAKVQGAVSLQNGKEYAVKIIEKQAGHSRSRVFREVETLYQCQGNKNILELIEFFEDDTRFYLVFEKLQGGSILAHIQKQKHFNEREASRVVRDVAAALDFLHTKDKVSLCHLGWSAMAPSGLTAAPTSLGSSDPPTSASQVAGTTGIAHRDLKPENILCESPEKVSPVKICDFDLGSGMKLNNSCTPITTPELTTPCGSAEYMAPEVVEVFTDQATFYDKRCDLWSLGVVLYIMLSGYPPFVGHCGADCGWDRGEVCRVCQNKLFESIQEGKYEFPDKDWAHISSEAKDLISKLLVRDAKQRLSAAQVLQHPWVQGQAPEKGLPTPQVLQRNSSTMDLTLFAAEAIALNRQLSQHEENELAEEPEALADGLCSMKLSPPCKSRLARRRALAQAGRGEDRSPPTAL

`C=CC(=O)Nc1ccc(C(=O)Nc2[nH]nc3c2CN(C(=O)N[C@H](CN(C)C)c2ccccc2)C3(C)C)cc1`: the % of engagement in assay [1] is -6.5%.
For the compound `CN(C)C/C=C/C(=O)Nc1ccc(C(=O)N2CCCC(Nc3ncc(Cl)c(-c4c[nH]c5ccccc45)n3)C2)cc1` (configuration not stated), the % of control in assay [2] came out at 88%.
Take `CC[C@@H]1[C@H](F)C(=O)N[C@@H]1COc1nccc2cc(C(N)=O)c(OC)cc12` [ZIMLOVISERTIB]: in assay [3], the % of inhibition came out at 2.7%.
Take `Cc1cc(F)c(C(=O)Nc2cccc(-c3nncn3C(C)C)n2)cc1-n1cnc(C2CC2)c1`: the % of control in assay [4] was found to be 78%; in assay [5] it was 96%.
As to `C=CC(=O)Nc1cccc(C(=O)Nc2ccc(Nc3cc(-c4[nH]c(SC)nc4C)ccn3)cc2)c1`, the % of control was determined as 98% in assay [6] (at 1 µM) and 86% in assay [6] (at 5 µM).
